As usually defined, the EC50 is the concentration at which the effect is half-maximal. What is called microsomal CLint is the capacity of the preparation to metabolise the compound, expressed as a volume cleared per time. Low values mean slow turnover, high ones rapid turnover. The hepatocyte CLint is a measure of how fast metabolising enzymes remove a compound, apart from limits set by blood flow. Lower therefore signals greater metabolic stability. The term solubility denotes how much of the substance goes into solution per volume. Low readings indicate little dissolved substance, high ones much dissolved substance.

≈ marks a conversion by molar mass, not a printed value.

Results on three compounds are retold here after patent publication US20260069558A1, “RXFP1 MODULATORS FOR TREATING RESISTANT HYPERTENSION OR HEART FAILURE WITH PULMONARY HYPERTENSION” (ASTRAZENECA AB, priority 2022, published 2026).

One data set has as its target T1, human RXFP1 (Homo sapiens, UniProt Q9HBX9).
T1 construct: expressed in transfected cells; host or cells: Jump-In T-REx CHO-K1 cells (ThermoFisher)
T1 sequence (Q9HBX9 1-757): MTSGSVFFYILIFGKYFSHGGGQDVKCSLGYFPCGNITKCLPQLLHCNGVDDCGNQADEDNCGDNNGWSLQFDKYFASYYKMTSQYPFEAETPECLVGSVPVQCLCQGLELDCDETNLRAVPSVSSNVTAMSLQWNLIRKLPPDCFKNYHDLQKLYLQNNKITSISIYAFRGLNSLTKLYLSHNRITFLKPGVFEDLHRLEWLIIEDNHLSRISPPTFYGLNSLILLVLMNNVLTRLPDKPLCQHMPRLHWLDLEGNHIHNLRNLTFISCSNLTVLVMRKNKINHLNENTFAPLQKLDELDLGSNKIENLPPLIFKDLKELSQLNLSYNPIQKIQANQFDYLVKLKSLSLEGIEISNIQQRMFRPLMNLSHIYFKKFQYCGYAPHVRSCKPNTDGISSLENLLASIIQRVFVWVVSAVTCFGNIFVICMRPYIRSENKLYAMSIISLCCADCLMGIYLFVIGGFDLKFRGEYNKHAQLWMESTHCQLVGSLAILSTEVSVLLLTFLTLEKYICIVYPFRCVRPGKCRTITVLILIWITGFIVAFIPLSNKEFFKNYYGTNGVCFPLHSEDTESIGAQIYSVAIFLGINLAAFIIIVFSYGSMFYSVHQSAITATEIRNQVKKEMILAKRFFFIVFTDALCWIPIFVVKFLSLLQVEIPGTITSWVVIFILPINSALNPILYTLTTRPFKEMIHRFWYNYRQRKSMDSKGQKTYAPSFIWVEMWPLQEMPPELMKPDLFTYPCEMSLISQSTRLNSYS
The experiment in a line: RXFP1 Hu cAMP (Test A), HTRF cAMP production. It is filed as cell-based. The conditions noted are these: for Test A Sinf: fitted efficacy at infinite concentration, normalized to response of 1 nM relaxin, arithmetic mean. An excerpt: To screen for modulators of hRXFP1, an assay identifying compounds that stimulate cAMP production via the Gs-coupled hRXFP1 receptor was used. cAMP HiRange HTRF kit (available from CisBio Bioassays, France; catalogue number 62AM6PEJ) was employed in large according to manufacturer's recommendations for detection of cAMP. The HTRF method is a competitive immunoassay between native cAMP produced by cells and cAMP labeled with the dye d2. The tracer binding is visualized with a cryptate labeled antibody for cAMP and the signal is thus inversely proportional to the amount of produced cAMP.
Cells: Jump-In™ T-REx™ CHO-K1 Cells (ThermoFisher) stably transfected with human RXFP1 was employed. Cells were induced to express human RXFP1 by treatment with 10 ng/ml doxycycline for 24 h. Cells were then cryopreserved for long term storage.
HTRF detection reagents: cAMP-d2 and anti-cAMP cryptate reconstituted according to CisBio instructions were diluted 1:40 in lysis buffer provided with the HTRF-kit.
Using a cAMP standard curve, HTRF data was converted to amount cAMP produced in the samples which was subsequentially used for calculation of concentration responses.
Concentration response data were fitted with a four parameter logistic fit, the Hill equation.
Where the assay was run multiple times for the same compound, the geometric mean is reported.
Sinf is the fitted activity level, efficacy, at infinite concentration of test compound. To facilitate comparison of efficacy data, efficacy was normalized to % effect of the response stimulated by a saturating concentration of relaxin (1 nM). Where the assay was run multiple times for the same compound, the arithmetic mean is reported.
For orientation: Time-resolved FRET reads energy transfer from a long-lived donor to a nearby acceptor.

Data set [1] in a line: Human Plasma Protein Binding (Test B). Type of data set: in vitro ADME. The conditions noted are these: fraction unbound (fu), arithmetic mean. The procedure: Human Plasma Protein Binding (Test B)
The assay was conducted according to the Human Plasma Protein Binding Assay described in pages 167-170 of Wemevik, J. et al., “A Fully Integrated Assay Panel for Early Drug Metabolism and Pharmacokinetics Profiling”, Assay and Drug Development Technologies, 2020, 18(4), 157-179. Data are reported in Table 1 as fraction unbound (fu) (% free). Where the assay was run multiple times for the same compound, the arithmetic mean is reported.

The nature of data set [2]: Human Liver Microsomal Stability (Test C). Type of data set: in vitro ADME. As to conditions: human liver microsomes; arithmetic mean. How it is done:
Human Liver Microsomal Stability (Test C)
The assay was conducted according to the Human Liver Microsome Stability Assay described in pages 170-174 of Wemevik, J. et al., “A Fully Integrated Assay Panel for Early Drug Metabolism and Pharmacokinetics Profiling”, Assay and Drug Development Technologies, 2020, 18(4), 157-179. Data are reported in Table 1 as CLint (μl/min/mg protein).
Where the assay was run multiple times for the same compound, the arithmetic mean is reported.

A short description of data set [3]: Human Hepatocyte Stability (Test D). Type of data set: in vitro ADME. The conditions noted are these: cryopreserved pooled human hepatocytes (LiverPool 10-Donor), geometric mean. The procedure:
Human Hepatocyte Stability (Test D)
Prepare 10 mM stock solutions of compound and control compounds in appropriate solvent (DMSO). Place incubation medium (L-15 Medium) in a 37° C. water bath, and allow warming for at least 15 minutes prior to use. • 2. […] Remove a vial of cryopreserved (less than −150° C.) human hepatocytes (LiverPool™ 10-Donor Human hepatocytes obtained from Bioreclamation IVT (Product No. S01205)) from storage, ensuring that vials remain at cryogenic temperatures until thawing process ensues. As quickly as possible, thaw the cells by placing the vial in a 37° C. water bath and gently shaking the vials. Vials should remain in water bath until all ice crystals have dissolved and are no longer visible. After thawing is complete, spray vial with 70% ethanol, transfer the vial to a bio-safety cabinet. • 5. Open the vial and pour the contents into the 50 mL conical tube containing thawing medium. Place the 50 mL conical tube into a centrifuge and spin at 100 g for 10 minutes (room temperature). […] Using Cellometer® Vision, count cells and determine the viable cell density. […]
All calculations were carried out using Microsoft Excel. Peak areas were determined from extracted ion chromatograms. In vitro intrinsic clearance (in vitro Clint, in μL/min/10^6 cells) of parent compound was determined by regression analysis of the Ln percent parent disappearance vs. time curve.

A short description of data set [4]: Rat Hepatocyte Stability (Test E). Type of data set: in vitro ADME. The conditions noted are these: rat hepatocytes; geometric mean. How it is done:
Rat Hepatocyte Stability (Test E)
The assay was conducted according to the Rat Hepatocyte Stability Assay described in pages 170-174 of Wernevik, J. et al., “A Fully Integrated Assay Panel for Early Drug Metabolism and Pharmacokinetics Profiling”, Assay and Drug Development Technologies, 2020, 18(4), 157-179. Data are reported in Table 1 as mean Clint (μl/min/10^6 cells). Where the assay was run multiple times for the same compound, the geometric mean is reported.

Another data set in a line: Solubility (Test F). It is filed as physicochemical. As to conditions: arithmetic mean. How it is done:
The assay was conducted according to the Solubility Assay described in pages 164-167 of Wemevik, J. et al., “A Fully Integrated Assay Panel for Early Drug Metabolism and Pharmacokinetics Profiling”, Assay and Drug Development Technologies, 2020, 18(4), 157-179. Where the assay was run multiple times for the same compound, the arithmetic mean is reported.

On human RXFP1 (cAMP production, Jump-In T-REx CHO-K1 cells stably transfected with human RXFP1, geometric mean), `COc1cc(F)c(O[C@H]2CC[C@@](C)(C(=O)O)CC2)cc1C(=O)N[C@@H]1[C@H]2CC[C@H](C2)[C@@H]1C(=O)NCC1CCC1` [Example 2, (1S,4s)-4-(5-(((1S,2R,3S,4R)-3-((cyclobutylmethyl)carbamoyl)bicyclo[2.2.1]heptan-2-yl)carbamoyl)-2-fluoro-4-methoxyphenoxy)-1-methylcyclohexane-1-carboxylic acid] gave an EC50 of 230 nM. The “Test A Sinf” value on human RXFP1 amounted to 101%.
Regarding `COc1cc(C#N)c(O[C@H]2CC[C@@](C)(C(=O)O)CC2)cc1C(=O)N[C@@H]1[C@H]2CC[C@H](C2)[C@@H]1C(=O)NCC1CC1` [Example 3, (1S,4s)-4-(2-Cyano-5-(((1S,2R,3S,4R)-3-((cyclopropylmethyl)carbamoyl)bicyclo[2.2.1]heptan-2-yl)carbamoyl)-4-methoxyphenoxy)-1-methylcyclohexane-1-carboxylic acid], on human RXFP1, the “Test A Sinf” value was found to be 97%.
As for `COc1cc(C#N)c(O[C@H]2CC[C@@](C)(C(=O)O)CC2)cc1C(=O)N[C@@H]1[C@H]2CC[C@H](C2)[C@@H]1C(=O)NCC(C)(C)C` [Example 5, (1S,4s)-4-(2-cyano-4-methoxy-5-(((1S,2R,3S,4R)-3-(neopentylcarbamoyl)bicyclo[2.2.1]heptan-2-yl)carbamoyl)phenoxy)-1-methylcyclohexane-1-carboxylic acid], the “Test B Human Plasma Protein Binding (% free)” value in data set [1] is on record as 12 % free. Besides, the intrinsic clearance (microsomal CLint) in data set [2] was under 3 µL/min/mg. In addition, the hepatocyte CLint at 1 µM in data set [3] is under 1.2 µL/min/1e6 cells. The intrinsic clearance (hepatocyte CLint) in data set [4] is 15 µL/min/1e6 cells. The amount in solution in “Solubility (Test F)” (solubility) came to 910 µM (≈ 491 µg/mL).
